This is an account of results in ChEMBL document CHEMBL3872216, “Modulatory effects of silibinin in various cell signaling pathways against liver disorders and cancer - A comprehensive review” (Eur J Med Chem, 2016).

In test [1] the target is Cytochrome P450 2C9 (Homo sapiens, UniProt P11712). The test can be described thus: Inhibition of CYP2C9 in human liver microsomes using (S)-warfarin as substrate at after 30 mins by LC-MS/MS analysis. The format is ADME. (In general: Microsomes from liver hold many membrane-bound enzymes, among them those of drug oxidation.)
The nature of test [2]: Cytotoxicity against human T47D cells assessed as reduction in cell viability after 24 hrs in presence of curcumin by MTT assay. The format is functional, cell-based.
The nature of test [3]: Antitumor activity against humanPC3 cells xenografted in nude mouse assessed as tumor growth inhibition at 100 mg/kg, po administered via gavage for 5 days per week for 7 weeks relative to control. Format: functional. The note with it: Homo sapiens, PC-3, po; read-out: TGI.
Test [4] can be described thus: Cytotoxicity against human DU145 cells assessed as cell growth inhibition at 100 uM after 48 hrs in presence of 25 nM doxorubicin by manual cell counting. The format is functional, DU-145.
Test [5] is described as follows: Cytotoxicity against human LNCAP cells assessed as cell growth inhibition at 25 uM after 48 hrs in presence of 15 nM doxorubicin by manual cell counting. The format is functional.
The test system of test [6] is Hepatitis C virus. The test can be described thus: Antiviral activity against Hepatitis C virus in liver transplanted patient with established HCV recurrence assessed as reduction in viral load at 20 mg/kg, iv administered for 14 days. Format: functional, Hepacivirus hominis.
The nature of test [7]: Downregulation of telomerase expression in human T47D cells after 72 hrs in presence of curcumin by SYBR green-dye based RT-PCR analysis. The format is functional, cell-based.
Test [8] can be described thus: Cytotoxicity against human ARCaPM cells assessed as cell growth inhibition at 200 uM after 48 hrs by MTT assay relative to control. Format: functional. Conditions: read-out: GI. For orientation: Tetrazolium assays rely on reduction of a dye to a coloured formazan, in cell work by metabolically active cells.
Test [9] is described as follows: Antitumor activity against wild type B6/129PF2 mouse lung tumor assessed reduction in urethane-induced tumor growth at 742 mg/kg, po administered via gavage for 5 days per week for 18 weeks starting from 8 weeks after urethane injection measured 25 weeks after first urethane injection. The format is functional. Conditions: B6/129PF2, po, read-out: TGI.
A short description of test [10]: Cytotoxicity against human DU145 cells assessed as cell growth inhibition at 200 uM after 48 hrs by MTT assay relative to control. The note with it: DU-145, 48 h, read-out: GI. The format is functional.
A short description of test [11]: Antitumor activity against human HT-29 cells xenografted in nude mouse assessed as tumor growth inhibition at 200 mg/kg, po administered 5 days per week for 32 days. Format: functional. The note with it: HT-29, po, read-out: TGI.
Test [12] can be described thus: Cytotoxicity against human LoVo cells assessed as reduction in cell growth at 50 to 200 uM after 24 hrs by trypan blue exclusion assay. Format: functional.
The nature of test [13]: Cytotoxicity against human LNCAP cells assessed as cell growth inhibition at 200 uM after 48 hrs by MTT assay relative to control. Format: functional. The note with it: read-out: GI.
Test [14] can be described thus: Cytotoxicity against human PC3 cells assessed as cell growth inhibition at 200 uM after 48 hrs by MTT assay relative to control. The format is functional. Conditions: PC-3, 48 h, read-out: GI.
Test [15] in a line: Cytotoxicity against human T47D cells assessed as reduction in cell viability after 24 hrs by MTT assay. Format: functional, cell-based.
Test [16] is described as follows: Cytotoxicity against human LoVo cells assessed as reduction in cell growth after 24 hrs by trypan blue exclusion assay. Format: functional, cell-based.

Molecules are shown by their SMILES.

Sequence of Cytochrome P450 2C9 (P11712 whole entry): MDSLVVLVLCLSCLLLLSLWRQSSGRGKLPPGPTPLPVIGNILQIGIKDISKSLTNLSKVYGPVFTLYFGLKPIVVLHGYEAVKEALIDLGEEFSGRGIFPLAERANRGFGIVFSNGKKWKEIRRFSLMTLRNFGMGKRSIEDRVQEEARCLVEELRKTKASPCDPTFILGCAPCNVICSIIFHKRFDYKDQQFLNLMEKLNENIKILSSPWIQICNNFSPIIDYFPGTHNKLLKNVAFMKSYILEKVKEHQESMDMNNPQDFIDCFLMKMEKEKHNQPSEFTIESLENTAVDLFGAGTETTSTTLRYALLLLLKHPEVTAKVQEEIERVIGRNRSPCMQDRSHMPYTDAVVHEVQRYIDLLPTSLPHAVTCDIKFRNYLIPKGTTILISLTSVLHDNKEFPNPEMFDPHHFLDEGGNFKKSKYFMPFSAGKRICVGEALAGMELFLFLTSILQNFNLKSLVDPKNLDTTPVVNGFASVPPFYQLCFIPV

Broadly, the IC50 is the concentration that gives 50% inhibition. As to `COc1cc([C@H]2Oc3cc([C@H]4Oc5cc(O)cc(O)c5C(=O)[C@@H]4O)ccc3O[C@@H]2CO)ccc1O` [SILYBIN A], the IC50 was 18 µM in test [1]; 20 µM in test [2]; 12 µM in test [7]; 110 µM in [15]; 50 to 200 µM in test [16]. Further, in [3], the inhibition in vivo at 100 mg/kg stood at 40%. Besides, the “growth inhibition (GI)” value is listed as 74 - 87% in test [4], 62 - 69% in [5] and 30 - 49% in test [12]. Moreover, the Activity in [6] was determined as 2.3. Further, the inhibition of growth at 200 µM in [8] worked out at 18.5%; in test [10] it was 73.8%; in test [13] it was 48.7%; in test [14], 60%. Moreover, the inhibition in vivo at 742 mg/kg in test [9] is 71%. For the same compound, the inhibition in vivo at 200 mg/kg in test [11] is not above 48%.

Take `COc1cc(/C=C/C(=O)CC(=O)/C=C/c2ccc(O)c(OC)c2)ccc1O` [CURCUMIN]: the IC50 in test [15] was 30 µM.
